Patent publication US12173042B2, “Methods of treating cancers with CT45 targeted therapies” (The University of Chicago, priority 2016, dated 2024)
“Also recorded” adds a separate entry of the source.

What was measured:
Type in all cases: cell-based, human
[1] = test system: KAP-1 Ser824 phosphorylation; assay: KAP-1 Ser824 phosphorylation (western blot, immunofluorescence); settings: carboplatin 5 μM
Procedure: Cells were treated with indicated drugs for 3 days and then media was changed. On indicated day of collection, both adherent and non-adherent cells were collected in RIPA buffer (25 mM Tris-HCl pH 7.6, 150 mM NaCl, 1% NP-40, 0.5% sodium deoxycholate, 0.1% SDS) supplemented with protease inhibitor cocktail (Thermo Scientific) and phosphatase inhibitor cocktail (Sigma). Lysates were incubated for 30 min on ice, sonicated and cleared by centrifugation (15 min, 14 000 rpm, 4° C.). The quantity of protein was determined by BCA reagent (Pierce). The extracts were analyzed by SDS-PAGE on a 4-20% gradient gel (Bio-Rad).
Cells were treated with 0 or 5 μM carboplatin on glass chamber slides. After 72 hr, media was changed. At designated timepoints, slides were fixed for 10 min at room temperature with 4% paraformaldehyde, cells were washed and permeabilized with PBS/0.1% Triton-X for 15 min and then blocked for 1 hr in blocking buffer (PBS/0.1% Triton-X/0.05% BSA/0.05% goat serum). Cells were washed three times and then were then incubated with primary antibody overnight diluted in blocking buffer at 4° C. Following three washes, cells were incubated with secondary antibody (diluted in blocking buffer) for 1 hr at room temperature and then with Hoechst 33342 for 2 min. Slides were mounted with ProLong Gold Antifade. […] A minimum of 100 cells/sample were analyzed. […]

[2] = test system: OVCAR5 CT45 expressing cells; assay: Proliferation with increasing concentrations of carboplatin; settings: CT45 expressing cells treated with carboplatin
Procedure: FIG. 8A-B. CT45 sensitizes cancer cells to carboplatin. a, Western blot of CT45 expression in ovarian cancer cell lines transduced with a CT45A5 lentivirus. b, Proliferation of OVCAR5 control (V5) or CT45 expressing cells with increasing concentrations of carboplatin.
FIG. 19A-F. CT45 sensitizes cancer cells to carboplatin. a, MTT of SKOV3ip1 cells with or without 500 nM DAC treated with increasing doses of carboplatin. Cells were pretreated with 500 nM DAC for 72 hr then cultured for 4 days and treated with carboplatin on day 7. The MTT was performed after 72 hr with carboplatin treatment. b, Western blot of CT45 expression in ovarian cancer cell lines transduced with a CT45A5 lentivirus. c, Proliferation of OVCAR5 control (V5) or CT45 expressing cells with increasing concentrations of carboplatin. d, Cell cycle analysis of OVCAR5 control (V5) or CT45 expressing cells stained with propidium iodide. e, Clonogenic survival assay of the ovarian cancer cell line OVKATE stably overexpressing CT45 or control. Dots represent mean values from three independent experiments. Error bars show s.e.m. for each group. f, Interaction proteomics screen in the ovarian cancer cell line COV318 stably over-expressing V5-tagged CT45. Protein enrichment (t-test difference) is calculated over the corresponding control cell line (V5 tag alone) and plotted against the t-test p-value (−log10). […]

[3] = test system: DNA damage in CT45-expressing cells; assay: Comet assay; settings: day 5
Procedure: Cells were treated with carboplatin for 3 days and then incubated an additional 2 days without drug. The comet assay was performed on day 5 as previously described39. Briefly, 2.5e4 cells/condition were resuspended in 70 uL 0.5% low melting point agarose (LMPA) at 37 C and plated on a glass slide precoated with 1% agarose in PBS. Samples were allowed to solidify at 4 C for 20 minutes with a square cover glass. The cover class was gently removed and a second 70 uL layer of 0.5% LMPA was applied and again allowed to solidify. The cover glass was removed and the slides immersed in Comet Lysis solution (2.5M NaCl, 100 mM EDTA, 10 mM Tris, 0.015% Triton X-100, pH 10) for one hour at 4 C and from this point forward protected from light. After lysis, the slides were equilibrated for 20 minutes in Comet Electrophoresis Buffer (0.3N NaOH, 1 mM EDTA, […]) at 4 C, and then run at 25V for 20 minutes. […] At least 100 cells were quantified/sample using the software OpenComet40. […]
Cells were treated with carboplatin for 3 days and then incubated an additional 2 days without drug. […] At least 100 cells were quantified/sample using the software OpenComet. […]

## N.N.O=C([O-])C1(C(=O)[O-])CCC1.[Pt+2] [carboplatin]
[1]; both cell lines
  time of peak of phosphorylated KAP-1: 3 days
[1]
  phosphorylation of KAP-1 at Ser824: induced phosphorylation
[2]
  proliferation: significantly reduced; also recorded: reduced proliferation
[3]
  DNA damage (tail moment): higher levels of DNA damage; also recorded: more DNA damage
